PubChem BioAssay AID330 (DTP/NCI, 2004)
Several values for one entry are separate records, joined by “and”; a condition that tells them apart may be missing. Identical values can stand only once. Toxic doses and inconclusive results are not listed. How the source made its calls: active means survival T/C of 150% or more; inactive means T/C below 125% in these data.

System: P388 leukemia ip, CD2F1 mice, survival T/C
Assay: NCI In Vivo Anticancer Drug Screen. Data for tumor model P388 Leukemia (intraperitoneal) in CD2F1 (CDF1) mice
Settings: endpoint: median survival time, higher = longer survival
Procedure, shortened: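 Mice carrying the transplanted tumor received test compound or vehicle. Survival was recorded in each group, and the value is the treated-group measurement divided by that of the vehicle-treated control group.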

[1] = dose: 50.0 mg/kg/injection, schedule: Q01DX009 (ip), vehicle: Klucel (hydroxypropylcellulose) (HPC)
[2] = dose: 50.0 mg/kg/injection, schedule: Q01DX005 (ip), vehicle: saline
[3] = dose: 50.0 mg/kg/injection, schedule: Q01DX005 (ip), vehicle: Klucel (hydroxypropylcellulose) (HPC)
[4] = dose: 100.0 mg/kg/injection, schedule: Q01DX005 (ip), vehicle: Klucel (hydroxypropylcellulose) (HPC)
[5] = dose: 200.0 mg/kg/injection, schedule: Q01DX005 (ip), vehicle: Klucel (hydroxypropylcellulose) (HPC)

Measured: T/C

[C-]#[O+].[C-]#[O+].[C-]#[O+].[C-]#[O+].[Mo].c1cnc2c(c1)ccc1cccnc12
inactive: dose: 6.25 mg/kg/injection, schedule: Q01DX009 (ip), vehicle: Klucel (hydroxypropylcellulose) (HPC) 100 % of control | dose: 12.5 mg/kg/injection, schedule: Q01DX009 (ip), vehicle: Klucel (hydroxypropylcellulose) (HPC) 95 % of control | dose: 25.0 mg/kg/injection, schedule: Q01DX009 (ip), vehicle: Klucel (hydroxypropylcellulose) (HPC) 93 % of control | [1] 95 % of control

OCCOCCSCCOCCO
inactive: [2] 100 % of control | dose: 100.0 mg/kg/injection, schedule: Q01DX005 (ip), vehicle: saline 100 % of control | dose: 200.0 mg/kg/injection, schedule: Q01DX005 (ip), vehicle: saline 102 % of control

COc1ccc(C(=O)Cc2ccccc2C#N)cc1
inactive: dose: 100.0 mg/kg/injection, schedule: Q04DX002 (ip), vehicle: Klucel (hydroxypropylcellulose) (HPC) 100 % of control | dose: 200.0 mg/kg/injection, schedule: Q04DX002 (ip), vehicle: Klucel (hydroxypropylcellulose) (HPC) 99 % of control | dose: 400.0 mg/kg/injection, schedule: Q04DX002 (ip), vehicle: Klucel (hydroxypropylcellulose) (HPC) 99 % of control

Cn1c2c(c(=O)c3cc(O)ccc31)CC(O)C(C)(C)O2 (stereo unspecified)
inactive: [3] 102 % of control | [4] 94 % of control | [5] 86 % of control

CN1CCC(CCl)C(c2ccccc2)C1 (stereo unspecified)
inactive: dose: 12.5 mg/kg/injection, schedule: Q01DX005 (ip), vehicle: saline 100 % of control | dose: 25.0 mg/kg/injection, schedule: Q01DX005 (ip), vehicle: saline 100 % of control | [2] 107 % of control

C/C=C/CCC(=O)CC(O)CCO (stereo unspecified)
inactive: dose: 12.5 mg/kg/injection, schedule: Q01DX005 (ip), vehicle: Klucel (hydroxypropylcellulose) (HPC) 101 % of control | dose: 25.0 mg/kg/injection, schedule: Q01DX005 (ip), vehicle: Klucel (hydroxypropylcellulose) (HPC) 98 % of control | [3] 104 % of control and 89 % of control | [4] 104 % of control | [5] 101 % of control | dose: 400.0 mg/kg/injection, schedule: Q01DX005 (ip), vehicle: Klucel (hydroxypropylcellulose) (HPC) 111 % of control

COc1cccc(/C=N\c2nc(-c3ccccc3Cl)cs2)c1O
inactive: [3] 89 % of control | [4] 94 % of control | [5] 105 % of control

CCCCCCCCCSc1ccc(C(=O)O)cc1
inactive: dose: 100.0 mg/kg/injection, schedule: Q01DX009 (ip), vehicle: saline with Tween-80 109 % of control | dose: 200.0 mg/kg/injection, schedule: Q01DX009 (ip), vehicle: saline with Tween-80 103 % of control | dose: 400.0 mg/kg/injection, schedule: Q01DX009 (ip), vehicle: saline with Tween-80 105 % of control

CC(C)C(NC(=O)OCc1ccccc1)C(=O)NC(Cc1c[nH]c2ccccc12)C(=O)O (stereo unspecified)
inactive: dose: 50.0 mg/kg/injection, schedule: Q01DX005 (ip), vehicle: saline with Tween-80 99 % of control | dose: 100.0 mg/kg/injection, schedule: Q01DX005 (ip), vehicle: saline with Tween-80 99 % of control | dose: 200.0 mg/kg/injection, schedule: Q01DX005 (ip), vehicle: saline with Tween-80 95 % of control

CC(CC(=O)c1ccccc1)=NCCN=C(C)CC(=O)c1ccccc1.[Cl][Sn][Cl]
inactive: dose: 100.0 mg/kg/injection, schedule: Q01DX001 (ip), vehicle: Klucel (hydroxypropylcellulose) (HPC) 97 % of control | dose: 200.0 mg/kg/injection, schedule: Q01DX001 (ip), vehicle: Klucel (hydroxypropylcellulose) (HPC) 102 % of control | dose: 400.0 mg/kg/injection, schedule: Q01DX001 (ip), vehicle: Klucel (hydroxypropylcellulose) (HPC) 101 % of control

COc1ccc(OC)c(C(O)P(=O)(c2ccccc2)c2ccccc2)c1 (stereo unspecified)
inactive: [1] 98 % of control | dose: 100.0 mg/kg/injection, schedule: Q01DX009 (ip), vehicle: Klucel (hydroxypropylcellulose) (HPC) 93 % of control | dose: 200.0 mg/kg/injection, schedule: Q01DX009 (ip), vehicle: Klucel (hydroxypropylcellulose) (HPC) 93 % of control

CCCCCC(C)(Cl)CCCCC
inactive: dose: 100.0 mg/kg/injection, schedule: Q01DX009 (ip), vehicle: saline 101 % of control | dose: 200.0 mg/kg/injection, schedule: Q01DX009 (ip), vehicle: saline 106 % of control | dose: 400.0 mg/kg/injection, schedule: Q01DX009 (ip), vehicle: saline 106 % of control

O=C(NC(=S)c1ccc(Br)cc1)Nc1ccc(Cl)c(Cl)c1
inactive: dose: 12.5 mg/kg/injection, schedule: Q01DX009 (ip), vehicle: saline with Tween-80 96 % of control | dose: 25.0 mg/kg/injection, schedule: Q01DX009 (ip), vehicle: saline with Tween-80 98 % of control | dose: 50.0 mg/kg/injection, schedule: Q01DX009 (ip), vehicle: saline with Tween-80 106 % of control

O=c1c2cccnc2oc2c(Cl)cc(-c3nn[nH]n3)cc12
inactive: [3] 97 % of control | [4] 111 % of control | [5] 97 % of control
